Key:
Cytochrome P450 2C8 = biological target: T1, Cytochrome P450 2C8 (Homo sapiens, UniProt P10632); assay: (§1) All assays are carried out on a robotic system in 96 well plates. The final incubation volume contains TRIS buffer (0.1 M), MgCl2 (5 mM), human liver microsomes (0.05 mg/mL), amodiaquine (1 μM) and the test compound at five different concentrations or no compound (high control) in duplicate (e.g. highest concentration 10-50 μM with subsequent serial 1:4 dilutions). Following a short preincubation period, reactions are started with the cofactor (NADPH, 1 mM) and stopped by cooling the incubation down to 8° C. and subsequently by addition of one volume of acetonitrile. An internal standard solution¿the stable isotope d5-desethylamodiaquine is added after quenching of incubations. Peak area analyte (=metabolite formed) and internal standard is determined by LC-MS/MS. The resulting peak area ratio analyte to internal standard in these incubations is compared to a control activity containing no test compound. Within each of the assay runs, the IC50 of a positive control inhibitor (Montelukast) is determined.
T1 sequence (P10632 whole entry): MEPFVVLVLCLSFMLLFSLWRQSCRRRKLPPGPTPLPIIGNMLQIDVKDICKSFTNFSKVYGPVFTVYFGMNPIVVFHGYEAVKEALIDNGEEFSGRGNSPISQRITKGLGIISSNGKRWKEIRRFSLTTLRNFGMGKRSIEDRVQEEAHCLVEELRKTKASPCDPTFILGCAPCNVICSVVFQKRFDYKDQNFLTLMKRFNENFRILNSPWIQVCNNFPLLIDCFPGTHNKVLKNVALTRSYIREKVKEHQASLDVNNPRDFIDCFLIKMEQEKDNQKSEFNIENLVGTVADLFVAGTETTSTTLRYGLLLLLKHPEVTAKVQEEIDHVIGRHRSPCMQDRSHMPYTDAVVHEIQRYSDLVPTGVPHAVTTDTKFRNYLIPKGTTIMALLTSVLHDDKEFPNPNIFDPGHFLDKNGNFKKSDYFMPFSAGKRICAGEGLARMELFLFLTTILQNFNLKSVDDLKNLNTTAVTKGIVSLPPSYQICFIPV

Cytochrome P450 2C9 = Cytochrome P450 2C9 (Homo sapiens, UniProt P11712); assay: as §1, with “(0.1” for “(0.05”, “diclofenac (10” for “amodiaquine (1”, “(e.g.,” for “(e.g.”, “solution the” for “solution¿the”, “13C6-hydroxydiclofenac” for “d5-desethylamodiaquine”, “(sulfaphenazole)” for “(Montelukast)”
Chain of Cytochrome P450 2C9 (P11712 whole entry): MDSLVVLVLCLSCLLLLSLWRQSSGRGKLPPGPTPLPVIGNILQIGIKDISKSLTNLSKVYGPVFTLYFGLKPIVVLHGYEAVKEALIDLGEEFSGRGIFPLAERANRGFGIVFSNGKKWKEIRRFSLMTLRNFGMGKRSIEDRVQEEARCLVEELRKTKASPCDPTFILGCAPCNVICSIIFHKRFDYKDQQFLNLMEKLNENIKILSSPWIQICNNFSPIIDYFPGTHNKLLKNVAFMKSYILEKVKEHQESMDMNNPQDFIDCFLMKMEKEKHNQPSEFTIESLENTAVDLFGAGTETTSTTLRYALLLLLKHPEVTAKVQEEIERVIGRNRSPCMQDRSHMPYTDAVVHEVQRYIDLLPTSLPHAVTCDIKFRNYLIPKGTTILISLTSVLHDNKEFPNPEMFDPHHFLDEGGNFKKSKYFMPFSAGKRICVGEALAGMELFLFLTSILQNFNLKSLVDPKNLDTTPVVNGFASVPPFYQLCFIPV

Row | IC50 (Cytochrome P450 2C8) | IC50 (Cytochrome P450 2C9) | SMILES
1 | 10 µM | 31 µM | Cc1cc(C(=O)NCC(C)(C)O)cc(C)c1-c1ccc(F)c2c1CC[C@H]2Nc1ccc([C@H]2C[C@@H]2C(=O)O)nc1
2 | 5 µM | 7 µM | Cc1cccc(C)c1-c1ccc(F)c2c1CC[C@H]2Nc1ccc([C@H]2C[C@@H]2C(=O)O)nc1
3 | 9 µM | 10 µM | Cc1c(C#N)cccc1-c1ccc(F)c2c1CC[C@H]2Nc1ccc([C@H]2C[C@@H]2C(=O)O)nc1

— ChEMBL document CHEMBL5725871, “Indanylaminopyridylcyclopropanecarboxylic acids, pharmaceutical compositions and uses thereof” (2018)
